Data: article PMC11676693, “Population Pharmacokinetic and Pharmacodynamic Study of Palbociclib in Children and Young Adults with Recurrent, Progressive, or Refractory Brain Tumors” (Pharmaceutics, 2024)
Read-outs that look alike come from different tables or passages of the source.

Assays:
[1] = cited from earlier work
[2] = tested on: proliferating neutrophils in the bone marrow compartment (ANC); assay: Population pharmacodynamic model of ANC (neutrophil dynamics); format: in vivo, children and young adults
Procedure: (§1) A complete blood count (CBC) with differential was performed pre-therapy, weekly during course 1, and then weekly during courses 2 to 26. The CBC provided platelet and absolute neutrophil counts (ANCs).
(§2) The model describing the ANC and platelet dynamics has been previously described. The model for the ANC consisted of a bone marrow compartment with proliferating neutrophils, three transient compartments that represent the maturation process of the neutrophils from blasts to circulating neutrophils, and a circulating neutrophil compartment. The model included the negative feedback effects of endogenous G-CSF, which affected the growth rate of proliferating cells in a manner inversely proportional to the concentration of circulating neutrophils. We assumed that palbociclib only affected the proliferating neutrophils in the bone marrow compartment. We used a similar structural model for platelet dynamics. The model describing the neutrophil dynamics is shown in Equations (1)–(5) and Figure S1. (1) NPBM/dt=kinKM/KM+NcircIC50n/IC50n+Cpalblociclibn−kbpNPBM (2) dNT1/dt=kbpNPBM−NT1 (3) dNT2/dt=kbpNT1−NT2 (4) dNT3/dt=kbpNT2−NT3 (5) dNcirc/dt=kpbNT3−koutNcirc
The model parameters were as follows: NPBM: proliferating bone marrow stem cells; NT1, NT2, and NT3: transient compartments describing the maturation phases of the neutrophils; Ncirc: circulating neutrophils. Note that we were only able to observe this compartment. The model parameters were defined as follows: kin (1/days): the stem cell proliferation rate; kbp (1/days): the transition rate between transient compartments (the mean transition time from the bone marrow to the circulating neutrophils is 4/kbp); kout (1/days): the elimination rate of circulating neutrophils; KM (10^3/µL): the half-saturation effect of the G-CSF negative feedback; IC50 (nM) and n; the half-saturation effect and Hill coefficient of the palbociclib effects on the bone marrow; and Cpalbociclib (nM): the concentration of palbociclib in the plasma. Prior to treatment, the system was assumed to be steady-state, where Ncirc0 was the steady-state circulating neutrophil level. The following relationship between the model parameters was needed for the system to maintain steady state prior to treatment (Equation (6)). (6) KM=kbp/kin−kbpNcirc0
For this relationship to be positive, kin > kpb. To ensure this requirement, we defined kpb = fkbp·kin where fkbp ∈ [0, 1] and estimated fkbp. In addition, the initial conditions for the system at steady state (i.e., the steady-state solution to the system in the absence of the drug) are (Equation (7)) (7) kout/kbpNcirc0, kout/kbpNcirc0, kout/kbpNcirc0, kout/kbpNcirc0, Ncirc0
The parameters for the pharmacodynamic model were estimated using nonlinear mixed-effects modeling with the SAEM algorithm as implemented in the Monolix® software version 2023R1 (Lixoft, Antony, France). The palbociclib pharmacokinetics were fixed to each individual’s post hoc estimated parameters (as determined above). The inter-individual and inter-occasion variability were assumed to be log-normally distributed for all parameters except fkbp, which was assumed to be a logit distribution, so its value will be between 0 and 1. A proportional residual error model was used to quantify the unexplained variability of the model. Error terms were assumed to be normally distributed.

[3] = in vivo
Procedure: The patients included in this palbociclib population pharmacokinetic/pharmacodynamic analysis were treated in the phase I clinical trial PBTC-042 (NCT02255461), which evaluated single-agent oral palbociclib therapy in children and young adults with recurrent, progressive, or refractory brain tumors. Details of this clinical trial have been reported elsewhere. In adults treated with palbociclib, myelosuppression has been the main dose-limiting toxicity (DLT) reported, and the toxicity is greater in more heavily pretreated patients. Thus, patients in this pediatric trial were divided into two strata: stratum I included patients who were not heavily pretreated, while stratum II included heavily pretreated patients. The starting dosage for stratum I was 50 mg/m^2, with planned dose escalations to 75 mg/m^2 and 95 mg/m^2. The planned starting dosage for stratum II was one dosage level below the MTD for stratum I. The Institutional Review Board approved this trial and written informed consent was obtained from patients, parents, or legal guardians before the onset of any study procedures. Assent was obtained from patients as appropriate based on local institutional guidelines.
Pharmacokinetic studies of oral palbociclib (PD-0332991) were performed on course 1, day 1 and day 21 to evaluate the population pharmacokinetics of palbociclib. On day 2 of course 1, the palbociclib dose was held. On day 1 of course 1, palbociclib single-dose serial blood samples were drawn pre-dose and 0.5, 1, 2, 4, 8 (±1), 24 (±4), and 48 (±4) hours (immediately prior to the day 3 dose) after the oral dose. On day 21 of course 1, palbociclib steady-state serial blood samples were collected pre-dose and 1, 2, 4, 8 (±1), and 24 (±4) hours (immediately prior to the day 22 dose) after the dose.
At each time point, whole blood (2 mL) was collected in K2EDTA tubes, spun to plasma within one hour of collection, and stored at −20 °C until analysis. Palbociclib plasma concentrations were measured using a validated liquid chromatography–mass spectrometric assay method with a lower limit of quantitation (LLOQ) of 1 ng/mL [14].
Palbociclib serum concentration–time data from course 1, day 1 and day 21 were analyzed using nonlinear mixed-effects modeling implemented in Monolix software version 2023R1 (Lixoft, Antony, France) using the Stochastic Approximation Expectation Maximization (SAEM) algorithm. Inter-individual and inter-occasion variabilities were assumed to be log-normally distributed. A proportional residual error model was used to quantify the unexplained variability of the model. Error terms were assumed to be normally distributed. A one-compartment model with first-order absorption, the absorption lag time, and first-order elimination was used. Specifically, the PK parameters estimated included the absorption lag time (Tlag), absorption rate constant (ka), apparent oral volume (V/F), and apparent oral clearance (CL/F), where F was the bioavailability, which was not identifiable given only oral dosing was used. The inter-individual variability was estimated for all parameters. Additionally, the inter-occasion variability was estimated for the CL/F. The palbociclib dosage (i.e., the palbociclib dosage normalized to the patient body surface area (BSA)) was used as the model input. Data below the limit of quantitation (BLQ) were censored according to the Beal method M3 [17], as implemented in Monolix. […]

[4] = parameters: method as in PMID 37553297; details: mean (range), 12 children, cited from earlier work
[5] = tested on: platelets (PLT); assay: Population pharmacodynamic model of platelet (PLT) dynamics; format: in vivo, children and young adults
Procedure: as §1
as §2, with “The model describing the neutrophil dynamics is shown in Equations (1)–(5) and Figure S1. (1) NPBM/dt=kinKM/KM+NcircIC50n/IC50n+Cpalblociclibn−kbpNPBM (2) dNT1/dt=kbpNPBM−NT1 (3) dNT2/dt=kbpNT1−NT2 (4) dNT3/dt=kbpNT2−NT3 (5) dNcirc/dt=kpbNT3−koutNcirc” left out
The parameters for the pharmacodynamic model were estimated using nonlinear mixed-effects modeling with the SAEM algorithm as implemented in the Monolix® software version 2023R1 (Lixoft, Antony, France). The palbociclib pharmacokinetics were fixed to each individual’s post hoc estimated parameters (as determined above). […] A proportional residual error model was used to quantify the unexplained variability of the model. […]

[6] = median (5th–95th percentile), individual model estimates, first two courses

In the case of `CC(=O)c1c(C)c2cnc(Nc3ccc(N4CCNCC4)cn3)nc2n(C2CCCC2)c1=O` [palbociclib], the apparent oral clearance ([1]; Courlet, 45 women with metastatic breast cancer, two-compartment model) is listed as 67 L/h, the apparent oral clearance ([1]; Courlet, 45 women with metastatic breast cancer) is listed as 39 L/h/m^2 and the apparent oral clearance ([1]; Royer, adults, 124 patients) is listed as 34 L/h/m^2. The apparent oral clearance ([1]; Royer, adults, therapeutic drug monitoring data, 124 patients) was 58 L/h, the apparent oral clearance ([1]; adults, 143 patients) was 34 L/h/m^2 and the apparent oral clearance ([1]; adults, therapeutic drug monitoring data, 143 patients) was 57 L/h. The “increase of apparent oral clearance” value ([1]; taken under fasting conditions along with concomitant proton pump inhibitors) was 56%, the IC50 ([2]; Homo sapiens, Neutrophil, read-out: IC50 (half-saturation effect of palbociclib on the bone marrow)) was 384 nM and the “cumulative nature of decreases in ANCs” value ([2]; courses 3 and 4 predicted from courses 1 and 2) was “not cumulative”. For the same molecule, the “time individuals had grade 3 or greater neutropenia” value ([2]; median (5th–95th percentile) (abstract)) was 4 (0, 21) days, the ANC nadir ([2]; median (5th–95th percentile), first two courses) was 1.0 (0.4, 3.3) × 10^3/µL and the “time below an ANC of 0.5 × 10^3/µL (grade 4 neutropenia)” value [2, 6] was 0 (0, 11) days/course. For the same molecule, the “time below an ANC of 1.0 × 10^3/µL (grade 3 neutropenia)” value [2, 6] was 4 (0, 21) days/course, the “time below an ANC of 1.5 × 10^3/µL (grade 2 neutropenia)” value [2, 6] was 15 (0, 35) days/course and the “Inter-patient variability (IIV) of CL/F” value ([3]; human) was 0.24. The absorption rate constant ([3]; human) was 0.48 h⁻¹, the “decrease of inter-patient variability of CL/F with inclusion of AST” value ([3]; human) was 10% and the “fold lower apparent oral clearance” value ([3]; human, po) was 2 fold. The “effect of concomitant drugs as covariates on CL/F” value [3] was “None of the concomitant drugs considered as covariates were significant”, the “steady state apparent oral clearance” value ([4]; capsule and liquid formulations) was 40.4 (21.1–102.0) L/h/m^2 and the half-life [4] was 27.9 (4.5–86.8) hours. For the same molecule, the IC50 ([5]; Homo sapiens, Platelet, read-out: IC50 (half-saturation effect of palbociclib on the bone marrow)) was 559 nM and the “individuals with grade 1 (<100 ×) or greater thrombocytopenia” value ([5]; individual model estimates, first two courses, 31 individuals) was “three”.
